From patent US7531320B2, “Modulation of β-catenin/TCF-activated transcription” (priority 2003, dated 2009)

System: β-catenin/TCF reporter gene construct
Experiment: β-catenin/TCF luciferase reporter assay in SW480 cells
Type: cell-based, human
Experimental: FIG. 1. COMPOUND 1 inhibits β-catenin/TCF transcription. • A(i) and A(ii). Structures of COMPOUND 1, COMPOUND 2, COMPOUND 3, COMPOUND 4, and COMPOUND 5. • B(i) and B(ii). […] SW480 cells (10^5), (FIG. 1B(i)), were transfected with β-catenin/TCF luciferase construct. Cells were treated with COMPOUND 1 (1-64 μM). 24 hours post treatment lysates were prepared and subjected to dual luciferase assay. The data is represented in different form in FIG. 1B(ii). • C. COMPOUND 1 has no effect on NFAT reporter construct. Stably transfected Jurkat cells, right panel, with an NFAT reporter construct, were stimulated with PMA (10 ng/ml)/lonomycin (1 μg/ml), and treated with COMPOUND 1 (0.781-50 μM). 24 hours post treatment lysates were prepared and subjected to dual luciferase assay. All experiments were performed in duplicate and the values plotted as means +/−standard deviation. • D. CBP is the molecular target of COMPOUND 1. Nuclear extracts of SW480 cells were incubated with streptavidin-agarose beads coated with COMPOUND 2 (25 μM). Beads were washed 3 times and the eluted were subjected to gel electrophoresis and immunoblotting, with anti-CBP antibodies. […] The lysates were desalted using G-25 1 cc columns (Pharmacia) to remove the unbound ^14C-labeled-COMPOUND 1, and ^14C-labeled-COMPOUND 1 incorporation was measured. […]

## O=C1C(Cc2ccc(O)cc2)N2C(=O)CCN(C(=O)NCc3ccccc3)C2CN1Cc1cccc2ccccc12 (centres unmarked) [COMPOUND 1]
SW480 cells cotransfected with CBP (not β-catenin), dose-dependent
  Change of IC50 of COMPOUND 1 on transfection of increasing concentration of CBP: increased the IC50
SW480 cells, 1-64 μM, 24 hours post treatment, dual luciferase assay
  IC50: 5 µM
